Laboratory results from PubChem BioAssay AID248 (DTP/NCI, 2004).
Where “and” joins values, the source holds several entries; their conditions need not be identical. Equal values may be shown once. Inconclusive results and toxic doses are left out.

Tested on: L1210 leukemia ip in BDF1 mice, survival T/C
Assay: NCI In Vivo Anticancer Drug Screen. Data for tumor model L1210 Leukemia (intraperitoneal) in B6D2F1 (BDF1) mice
Conditions: endpoint: mean survival time, higher = longer survival
In short: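 Ratio derived from survival: compound-dosed mice over vehicle-dosed mice, all bearing a transplantable tumor.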

[1] = dose: 100.0 mg/kg/injection, schedule: Q01DX001 (ip), vehicle: saline
[2] = dose: 200.0 mg/kg/injection, schedule: Q01DX001 (ip), vehicle: saline
[3] = dose: 200.0 mg/kg/injection, schedule: Q01DX009 (ip), vehicle: saline
[4] = dose: 400.0 mg/kg/injection, schedule: Q01DX001 (ip), vehicle: saline
[5] = dose: 100.0 mg/kg/injection, schedule: Q01DX001 (ip), vehicle: saline with Tween-80
[6] = dose: 200.0 mg/kg/injection, schedule: Q01DX001 (ip), vehicle: saline with Tween-80
[7] = dose: 400.0 mg/kg/injection, schedule: Q01DX001 (ip), vehicle: saline with Tween-80
[8] = dose: 100.0 mg/kg/injection, schedule: Q01DX009 (ip), vehicle: saline

Question: COC(=O)c1cn[nH]c1/N=N/N(C)CCO was tested. Which T/C [1] did it give?
Answer: The T/C was 113 % of control.

Question: What about the T/C (dose: 100.0 mg/kg/injection, schedule: Q04DX003 (ip), vehicle: saline) of the same compound?
Answer: The T/C was 119 % of control.

Question: What about the T/C [2] of the same compound?
Answer: The T/C was 117 % of control.

Question: What about the T/C [3] of the same compound?
Answer: Its T/C is 163 % of control.

Question: And the T/C (dose: 200.0 mg/kg/injection, schedule: Q04DX003 (ip), vehicle: saline)?
Answer: The T/C was 119 % of control.

Question: What about the T/C [4] of the same compound?
Answer: The T/C was 107 % of control.

Question: What about the T/C (dose: 400.0 mg/kg/injection, schedule: Q04DX003 (ip), vehicle: saline) of the same compound?
Answer: The T/C was 119 % of control.

Question: With C[Si](F)(c1cccc2ccccc12)c1cccc2ccccc12 as the compound, how does the T/C [5] read?
Answer: The T/C was 97 % of control.

Question: And the T/C [6]?
Answer: The T/C was 103 % of control.

Question: What about the T/C [7] of the same compound?
Answer: The T/C was 102 % of control.

Question: What does the source list for O=C(O)c1ccc(/C=C\c2cccc(S(=O)(=O)F)c2)cc1?
Answer: T/C [5]: 100 % of control; T/C [6]: 97 % of control; T/C [7]: 92 % of control

Question: With O=[As]1(c2cccc3ccccc23)c2ccccc2Cc2ccccc21 as the compound, how does the T/C (dose: 83.0 mg/kg/injection, schedule: Q01DX Z (ip), vehicle: methylcellulose (MC)) read?
Answer: The T/C was 86 % of control.

Question: And the T/C (dose: 125.0 mg/kg/injection, schedule: Q01DX Z (ip), vehicle: methylcellulose (MC))?
Answer: Its T/C is 86 % of control.

Question: What does the source list for Cc1cccc(N2CCC3(CC2)C(=O)NC(=S)NC3=O)c1?
Answer: T/C [1]: 104 % of control; T/C [2]: 94 % of control; T/C [4]: 98 % of control

Question: CCOC(=O)/C=C(\C)N1CCCCC1 was tested. Which T/C [8] did it give?
Answer: The T/C was 104 % of control.

Question: And the T/C [3]?
Answer: The T/C was 100 % of control.

Question: What does the source list for NC(Cc1nn[nH]n1)C(=O)O (stereo not given)?
Answer: T/C (dose: 100.0 mg/kg/injection, schedule: Q01DX009 (ip), vehicle: water): 102 % of control; T/C (dose: 100.0 mg/kg/injection, schedule: Q04DX003 (ip), vehicle: water): 96 % of control; T/C (dose: 200.0 mg/kg/injection, schedule: Q01DX009 (ip), vehicle: water): 102 % of control; T/C (dose: 200.0 mg/kg/injection, schedule: Q04DX003 (ip), vehicle: water): 94 % of control; T/C (dose: 400.0 mg/kg/injection, schedule: Q01DX009 (ip), vehicle: water): 98 % of control; T/C (dose: 400.0 mg/kg/injection, schedule: Q04DX003 (ip), vehicle: water): 88 % of control

Question: For Cc1cc(C)c(NC(=O)c2cccc([N+](=O)[O-])c2C(=O)O)cc1C, which T/C (dose: 100.0 mg/kg/injection, schedule: Q04DX002 (ip), vehicle: Klucel (hydroxypropylcellulose) (HPC)) is on record?
Answer: Its T/C is 105 % of control.

Question: And the T/C (dose: 200.0 mg/kg/injection, schedule: Q04DX002 (ip), vehicle: Klucel (hydroxypropylcellulose) (HPC))?
Answer: The T/C was 96 % of control.

Question: And the T/C (dose: 400.0 mg/kg/injection, schedule: Q04DX002 (ip), vehicle: Klucel (hydroxypropylcellulose) (HPC))?
Answer: Its T/C is 108 % of control.

Question: What does the source list for Cc1ccc(S(=O)(=O)OCCN2C(=O)NC(c3ccccc3)(c3ccccc3)C2=O)cc1?
Answer: T/C (dose: 3.1 mg/kg/injection, schedule: Q01DX009 (ip), vehicle: saline): 104 % of control; T/C (dose: 6.25 mg/kg/injection, schedule: Q01DX009 (ip), vehicle: saline): 100 % of control; T/C (dose: 12.5 mg/kg/injection, schedule: Q01DX009 (ip), vehicle: saline): 104 % of control; T/C (dose: 25.0 mg/kg/injection, schedule: Q01DX009 (ip), vehicle: saline): 98 % of control; T/C (dose: 50.0 mg/kg/injection, schedule: Q01DX009 (ip), vehicle: saline): 100 % of control; T/C [8]: 102 % of control; T/C (dose: 150.0 mg/kg/injection, schedule: Q04DX003 (ip), vehicle: saline with Tween-80): 109 % of control; T/C (dose: 225.0 mg/kg/injection, schedule: Q04DX003 (ip), vehicle: saline with Tween-80): 109 % of control; T/C (dose: 335.0 mg/kg/injection, schedule: Q04DX003 (ip), vehicle: saline with Tween-80): 98 % of control

Question: With O=NN(CCF)C(=O)NC12CC3CC(CC(C3)C1)C2 as the compound, how does the T/C (dose: 40.0 mg/kg/injection, schedule: Q01DX001 (ip), vehicle: carboxymethylcellulose (CMC)) read?
Answer: The T/C was 124 % of control.

Question: What about the T/C (dose: 60.0 mg/kg/injection, schedule: Q01DX001 (ip), vehicle: carboxymethylcellulose (CMC)) of the same compound?
Answer: The T/C was 190 % of control.

Question: And the T/C (dose: 93.0 mg/kg/injection, schedule: Q01DX001 (ip), vehicle: carboxymethylcellulose (CMC))?
Answer: The T/C was 192 % of control.

Question: What about the T/C (dose: 187.0 mg/kg/injection, schedule: Q01DX001 (ip), vehicle: carboxymethylcellulose (CMC)) of the same compound?
Answer: The T/C was 259 % of control.

Question: Which T/C (dose: 100.0 mg/kg/injection, schedule: Q04DX002 (ip), vehicle: saline with Tween-80) does the source give for COc1cc(CCCc2cccc(O)c(=O)c2)cc(OC)c1OC here?
Answer: The T/C was 91 % of control and 103 % of control.

Question: What about the T/C (dose: 200.0 mg/kg/injection, schedule: Q04DX002 (ip), vehicle: saline with Tween-80) of the same compound?
Answer: Its T/C is 105 % of control and 89 % of control.

Question: And the T/C (dose: 400.0 mg/kg/injection, schedule: Q04DX002 (ip), vehicle: saline with Tween-80)?
Answer: Its T/C is 108 % of control and 116 % of control.
